Square brackets hold non-standard residues; d marks the D form. Ends that are not written are not given here. Nle = CCCC[C@H](N)C(=O)O; Orn = NCCC[C@H](N)C(=O)O

Holding throughout (format): cell-based
The subject of one assay is E. coli. Kind of assay: MMC99% of modified peptides, E. coli (Example 25). To be noted: BHI diluted 1/100, pH approximately 6.7-6.9 (Table 21). The method, then:
(§1) In the examples, the minimal microbicidal concentrations (MMC) and minimal inhibitory concentrations (MIC) were determined as follows, unless otherwise specified in the examples. Bacterial or fungal strains were cultured in BHI medium over night at 37° C. A volume of the culture was transferred to a new tube with BHI and incubated for two more hours. Thereafter the cells were spun down and the pellet was suspended in BHI medium diluted 1/100 (1% BHI). The concentration of bacterial or fungal cells was spectrophotometrically determined at 650 nm. The microbial concentrations were also determined by viable counts. Peptides serially diluted in 1% BHI by twofold or tenfold steps were added in triplicate to the wells of a microtiterplate (200 μl per well). The bacterial or fungal cell solutions were added in 10 μl volumes to give a final concentration of approximately 1-5×10^5 cells per ml in the well. The microplate was incubated at 37° C. in a humid chamber for two hours. Thereafter 5 μl was taken from each well and added as a drop onto a blood agar plate and incubated over night at 37° C. The microplate was incubated for another 20 hours at 37° C. and thereafter analysed spectrophotometrically at 650 nm in a microplate reader (Emax, Molecular Devices, USA). The concentration of peptide causing a 99% reduction of the inoculum after 2 hours of incubation was defined as the MMC99%. The MIC value was defined as the concentration giving no increase in the absorbance value above the background level after 20 hours of incubation.
(§2) In this example the fungicidal, and bactericidal effects of the different peptides obtained in examples 18-21 were studied. C. albicans, E. coli and S. aureus, respectively, were incubated in BHI medium diluted 1/100, with a pH of approximately 6.7-6.9. The concentration of each peptide needed to kill 99% of the microorganisms (MMC99%) was determined.

The subject of a further assay is C. albicans. Nature of the assay: MMC99% of modified peptides, C. albicans (Example 25). The note with it: BHI diluted 1/100, pH approximately 6.7-6.9 (Table 21). The method, then: as §1, §2
The test system of assay [1] is S. aureus. Nature of the assay: MMC99% of modified peptides, S. aureus (Example 25). To be noted: BHI diluted 1/100, pH approximately 6.7-6.9 (Table 21). As for the experimental part:
as §1, §2

The next assay relates to C. albicans (ATCC64549). The note with it: for MIC: ATCC64549; for MMC99%: C. albicans, tested at 1, 10, 25 and 100 μg/ml of peptide. As for the experimental part:
as §1
(§3) C. albicans (ATCC64549) and E. coli O6, respectively, were incubated with the different peptides. The experiments were performed with 1, 10, 25 and 100 μg/ml of peptide.

The subject of a further assay is E. coli O6. The note with it: for MMC99%: E. coli O6, tested at 1, 10, 25 and 100 μg/ml of peptide; for MIC: O6. The method, then: as §1, §3
The test system of assay [2] is C. albicans yeast cells (ATCC64549). Kind of assay: killing and growth inhibition of C. albicans at pH 4.5 (Example 11). Also noted: key to C. albicans inhibition (OD650): + = no increase in OD650 is seen; − = OD650 continues to increase. The note with it: pH 4.5, 1% BHI, 25 μg/ml of the peptide; for C. albicans inhibition (OD650): OD650 after an additional 18 hours; for C. albicans killing: 99% / C. albicans killing: 100%: 2 hours. The method, then:
C. albicans yeast cells (ATCC64549) were incubated for 2 hours at pH 4.5 in BHI medium diluted to 1% of the original concentration containing 25 µg/ml of the peptide. Thereafter the fungal solutions were cultured on blood agar plates. OD650 was measured after incubation during an additional 18 hours. The fungicidal effect of the peptides on C. albicans was determined as the ability of the peptide to kill 100% and 99%, respectively, of the fungus, while the growth inhibitory effect was determined by measuring the OD650. An inhibitory effect existed when no increase in OD650 was recorded.

The next assay has as its system K. pneumoniae. Nature of the assay: killing of bacteria at fixed peptide concentration, K. pneumoniae (Example 12). The note with it: peptide 25 μg/ml. The method, then: (§4) In this example, the peptides according to the invention were used to study the effect on the killing of different bacteria.
(§5) The peptides were used at a concentration of 25 μg/ml.

Another assay concerns E. faecalis. Kind of assay: killing of bacteria at fixed peptide concentration, E. faecalis (Example 12). To be noted: peptide 25 μg/ml. As for the experimental part: as §4, §5
Assay [3] relates to S. aureus. Nature of the assay: killing of bacteria at fixed peptide concentration, S. aureus (Example 12). The note with it: peptide 25 μg/ml. The method, then:
as §4, §5

Another assay has as its system P. aeruginosa. Nature of the assay: killing of bacteria at fixed peptide concentration, P. aeruginosa (Example 12). To be noted: peptide 25 μg/ml. The method, then: as §4, §5
A further assay deals with S. epidermis. Nature of the assay: killing of bacteria at fixed peptide concentration, S. epidermis (Example 12). The note with it: peptide 25 μg/ml. The method, then: as §4, §5

Consider “A-F-Q-W-Q-R-N-M-R-K-V-R (AFQWQRNMRKVR) [SEQ. ID. NO. 68]”, for which the MMC99% in the assay with E. coli was over 25; with C. albicans, 12; in the assay on S. aureus [1], 28.

Turning to “Ac-ATKCFQWQRNMRKVR-NH2 (N-terminus and C-terminus assumed) [Peptide 63]”, in the assay on C. albicans (ATCC64549), the MIC – broadly, the least concentration at which growth counts as inhibited – was determined as 10 µg/mL and the MMC99% is 10 µg/mL. In the assay on E. coli O6, this substance returned an MMC99% of 10 µg/mL and an MIC of 10 µg/mL.

In the assay on C. albicans (ATCC64549), “Ac-PEATKCFQWQRNMRKVR-NH2 (N-terminus and C-terminus assumed) [Peptide 67]” registered an MIC of 10 µg/mL and an MMC99% of 10 µg/mL. In the assay on E. coli O6, this substance returned an MMC99% of 10 µg/mL and an MIC of 10 µg/mL.

Turning to “Ac-TKAFKWQRDMRKVR-NH2 (N-terminus and C-terminus assumed) [Peptide 53]”, in the assay with C. albicans (ATCC64549), the MIC was 10 µg/mL and the MMC99% was found to be 10 µg/mL. In the assay on E. coli O6, this substance displayed an MMC99% of 10 µg/mL and an MIC of 10 µg/mL.

In the case of “C-A-Q-W-Q-R-N-M-R-K-V-R (CAQWQRNMRKVR) [SEQ. ID. NO. 69]”, the MMC99% is listed as 12 in the assay on E. coli, 12 in the assay with C. albicans and 14 in the assay on S. aureus [1].

As to “C-F-A-W-Q-R-N-M-R-K-V-R (CFAWQRNMRKVR) [SEQ. ID. NO. 70]”, the MMC99% with E. coli is 6; in the assay with C. albicans, 6; in the assay on S. aureus [1], 7.

For “C-F-Q-A-Q-R-N-M-R-K-V-R (CFQAQRNMRKVR) [SEQ. ID. NO. 71]”, the MMC99% in the assay with E. coli was found to be 25; in the assay on C. albicans, 12; in the assay on S. aureus [1] it was 14.

In the case of “C-F-Q-L-Q-R-N-M-R-K-V-R (CFQLQRNMRKVR) [SEQ. ID. NO. 80]”, the MMC99% with E. coli amounted to 12; with C. albicans it was 6; in the assay with S. aureus [1] it was 7.

As for “C-F-Q-W-A-R-N-M-R-K-V-R (CFQWARNMRKVR) [SEQ. ID. NO. 72]”, the values for the MMC99% in the assay on E. coli, with C. albicans and in the assay with S. aureus [1] were 12, 12 and 7, respectively.

For the substance “C-F-Q-W-E-R-N-M-R-K-V-R (CFQWERNMRKVR) [SEQ. ID. NO. 84]”, the MMC99% was determined as 25 with E. coli, 12 with C. albicans and 14 in the assay with S. aureus [1].

In the case of “C-F-Q-W-Q-A-N-M-R-K-V-R (CFQWQANMRKVR) [SEQ. ID. NO. 73]”, the MMC99% with E. coli was 12; with C. albicans, 12; in the assay on S. aureus [1], 7.

“C-F-Q-W-Q-E-N-M-R-K-V-R (CFQWQENMRKVR) [SEQ. ID. NO. 85]”: the results for the MMC99% with E. coli, in the assay with C. albicans and in the assay with S. aureus [1] were over 25, over 50 and over 28, respectively.

“C-F-Q-W-Q-K-N-M-R-K-V-R (CFQWQKNMRKVR) [SEQ. ID. NO. 81]”: the MMC99% with E. coli is given as 6; in the assay on C. albicans, 6; with S. aureus [1], 7.

On to “C-F-Q-W-Q-R-A-M-R-K-V-R (CFQWQRAMRKVR) [SEQ. ID. NO. 74]”, for which the results for the MMC99% in the assay with E. coli, with C. albicans and in the assay on S. aureus [1] were 6, 6 and 3.5, respectively.

As to “C-F-Q-W-Q-R-E-M-R-K-V-R (CFQWQREMRKVR) [SEQ. ID. NO. 86]”, the MMC99% in the assay with E. coli amounted to 25; in the assay with C. albicans, 25; with S. aureus [1], 14.

Consider “C-F-Q-W-Q-R-N-A-R-K-V-R (CFQWQRNARKVR) [SEQ. ID. NO. 75]”, for which the figures for the MMC99% in the assay on E. coli, in the assay with C. albicans and in the assay on S. aureus [1] were 12, 25 and 7, respectively.

With “C-F-Q-W-Q-R-N-L-R-K-V-R (CFQWQRNLRKVR) [SEQ. ID. NO. 82]”, the MMC99% turned out to be 12 in the assay on E. coli, 6 in the assay with C. albicans and 7 with S. aureus [1].

Consider “C-F-Q-W-Q-R-N-M-A-K-V-R (CFQWQRNMAKVR) [SEQ. ID. NO. 76]”, for which the MMC99% in the assay with E. coli stood at 25; in the assay on C. albicans, 25; with S. aureus [1], 7.

For the substance “C-F-Q-W-Q-R-N-M-K-K-V-R (CFQWQRNMKKVR) [SEQ. ID. NO. 83]”, the values for the MMC99% with E. coli, with C. albicans and in the assay on S. aureus [1] were 6, 6 and 7, respectively.

Regarding “C-F-Q-W-Q-R-N-M-R-A-V-R (CFQWQRNMRAVR) [SEQ. ID. NO. 77]”, the results for the MMC99% in the assay on E. coli, in the assay on C. albicans and in the assay with S. aureus [1] were 12, 25 and 7, respectively.

With “C-F-Q-W-Q-R-N-M-R-K-A-R (CFQWQRNMRKAR) [SEQ. ID. NO. 78]”, the MMC99% in the assay on E. coli is listed as 12; in the assay on C. albicans, 25; with S. aureus [1] it was 7.

On to “C-F-Q-W-Q-R-N-M-R-K-V-A (CFQWQRNMRKVA) [SEQ. ID. NO. 79]”, for which the MMC99% in the assay on E. coli is recorded as 12; in the assay on C. albicans, 25; in the assay on S. aureus [1], 7.

“C-F-Q-W-Q-R-Nle-M-R-K-V-R (CFQWQR[Nle]MRKVR) [SEQ. ID. NO. 90]”: the values for the MMC99% with E. coli, in the assay with C. albicans and in the assay with S. aureus [1] were 12, 12 and 3.5, respectively.

For the substance “C-F-Q-W-Q-R-Orn-M-R-K-V-R (CFQWQR[Orn]MRKVR) [SEQ. ID. NO. 89]”, the MMC99% with E. coli was determined as 6; with C. albicans it was 6; in the assay on S. aureus [1] it was 3.5.

Take “Peptide 6: SEQ. ID. NO. 1 with X1 none, X2 none, X5 A, X7 K, X11 D, X17-25 none; 14 residues (Ac-TKAFKWQRDMRKVR)”: in assay [2], the “C. albicans inhibition (OD650)” value is “−”, the “C. albicans killing: 99%” value is on record as “+ (+ = 100/99% of the bacteria are killed)” and the “C. albicans killing: 100%” value is listed as “− (− = less than 100/99% of the bacteria are killed)”. In addition, in the assay on K. pneumoniae, the “killing of bacteria: K. pneumoniae” value is “+ (+ = 99% of the bacteria are killed)”. Moreover, the “killing of bacteria: E. faecalis” value with E. faecalis is recorded as “+ (+ = 99% of the bacteria are killed)”. Moreover, in the assay with S. aureus [3], the “killing of bacteria: S. aureus” value is “+ (+ = 99% of the bacteria are killed)”. The “killing of bacteria: P. aeruginosa” value with P. aeruginosa is “+ (+ = 99% of the bacteria are killed)”. In addition, the “killing of bacteria: S. epidermis” value in the assay on S. epidermis is recorded as “+ (+ = 99% of the bacteria are killed)”.

Regarding “Peptide 62: third embodiment, comprises a cysteine; sequence only in sequence listing (ATKCFQWQRNMRKVR)”, in [2], the “C. albicans inhibition (OD650)” value is reported as “+”, the “C. albicans killing: 99%” value is given as “+ (+ = 100/99% of the bacteria are killed)” and the “C. albicans killing: 100%” value is on record as “− (− = less than 100/99% of the bacteria are killed)”. The “killing of bacteria: K. pneumoniae” value in the assay with K. pneumoniae is on record as “+ (+ = 99% of the bacteria are killed)”. Moreover, the “killing of bacteria: E. faecalis” value with E. faecalis is “+ (+ = 99% of the bacteria are killed)”. In the assay with S. aureus [3], the “killing of bacteria: S. aureus” value is reported as “+ (+ = 99% of the bacteria are killed)”. Further, the “killing of bacteria: P. aeruginosa” value in the assay with P. aeruginosa is “+ (+ = 99% of the bacteria are killed)”. In the assay with S. epidermis, the “killing of bacteria: S. epidermis” value is recorded as “+ (+ = 99% of the bacteria are killed)”.

The values are drawn from patent US7803757B2, “Peptides based on the sequence of human lactoferrin and their use” (PharmaSurgics in Sweden AB, priority 1998, dated 2010).
